Reference: ChEMBL document CHEMBL1143951, “Synthesis and cytotoxicity evaluation of 22,23-oxygenated stigmastane derivatives” (Bioorg Med Chem, 2008)

How the values were obtained:
MCF7 = test: Cytotoxicity against human MCF7 cells after 48 hrs by MTT assay; assay type: functional, cell-based
HepG2 = test: Cytotoxicity against human HepG2 cells after 48 hrs by MTT assay; assay type: functional, cell-based

Row | Structure (SMILES) | Activity (MCF7) | Activity (HepG2)
1 | CCC(C(C)C)[C@H]1O[C@@H]1[C@@H](C)[C@H]1CC[C@H]2[C@@H]3[C@H](O)C=C4C[C@@H](O)CC[C@]4(C)[C@H]3CC[C@]12C (stereo partly specified) | Toxic | Toxic
2 | CCC(C(C)C)[C@@H](O)[C@H](O)[C@@H](C)[C@H]1CC[C@H]2[C@@H]3CC=C4C[C@@H](O)CC[C@]4(C)[C@H]3CC[C@]12C (stereo partly specified) | Toxic | Toxic
3 | CCC(C(C)C)[C@@H](O)[C@H](O)[C@@H](C)[C@H]1CC[C@H]2[C@@H]3C[C@@H]4O[C@@]45C[C@@H](O)CC[C@]5(C)[C@H]3CC[C@]12C (stereo partly specified) | Toxic | –
4 | CC[C@@H](C(C)C)[C@@H](O)[C@H](O)[C@@H](C)[C@H]1CC[C@H]2[C@@H]3CC(=O)C4=CC(=O)CC[C@]4(C)[C@H]3CC[C@]12C | Toxic | –
5 | CCC(C(C)C)[C@@H](O)[C@H](O)[C@@H](C)[C@H]1CC[C@H]2[C@@H]3C[C@@H](O)[C@@]4(O)C[C@@H](O)CC[C@]4(C)[C@H]3CC[C@]12C (stereo partly specified) | Toxic | Toxic
6 | CCC(C(C)C)[C@@H](O)[C@H](O)[C@@H](C)[C@H]1CC[C@H]2[C@@H]3C(=O)C=C4C[C@@H](O)CC[C@]4(C)[C@H]3CC[C@]12C (stereo partly specified) | Toxic | Toxic
7 | CC[C@@H](C(C)C)[C@@H](O)[C@H](O)[C@@H](C)[C@H]1CC[C@H]2[C@@H]3CCC4=CC(=O)CC[C@]4(C)[C@H]3CC[C@]12C | Toxic | –
